# Assay results as given in publication PMC6060961, “Synthesis of unsymmetrical disulfanes bearing 1,2,4-triazine scaffold and their in vitro screening towards anti-breast cancer activity” (Monatshefte Fur Chemie, 2018).
# Like-named read-outs stand apart in the source and are kept apart here.
# How the values were obtained:
# Fibroblasts = assay: DNA synthesis assay ([3H]-thymidine incorporation), fibroblasts; format: cell-based, human; details: read-out: IC50 inhibition of [3H]-thymidine incorporation into DNA
# [1] = system: MCF-7 breast cancer cells; assay: DNA synthesis assay ([3H]-thymidine incorporation), MCF-7; format: cell-based, human
# Protocol: We studied the effect of compounds 4a–4n and chlorambucil on DNA synthesis in MCF-7 breast cancer cells (Table 3).
# (§1) Cultured normal human skin fibroblasts and MCF-7 human breast cancer cells were maintained in DMEM supplemented with 10% fetal bovine serum (FBS), 50 U/cm^3 penicillin, and 50 μg/cm^3 streptomycin at 37 °C. Cells were cultured in Costar flasks and subconfluent cells were detached with 0.05% trypsin and 0.02% EDTA in calcium-free phosphate-buffered saline, counted in hemocytometers, and plated at 5 × 10^5 cells per well of 6-well plates (Nunc) in 2 cm^3 of growth medium (DMEM without phenol red with 10% CPSR1). Cells reached about 80% of confluency at day 3, and in most cases, such cells were used for the assays.
# MCF-7 cells were seeded in 6-well plates and were incubated with varying concentrations of […] or chlorambucil and 0.5 μCi of [^3H]-thymidine for 24 h at 37 °C [51]. The cells were then harvested by trypsinization, washed with cold phosphate-buffered saline, and centrifuged for 10 min at 1500 g several times (4–5) until the dpm in the washes were similar to the reagent control. Radioactivity was determined by liquid scintillation counting. [^3H]-thymidine uptake was expressed as dpm/well.
# [2] = system: MCF-7 human breast cancer cells; assay: Cell viability (MTT) assay, MCF-7; format: cell-based
# Protocol: (§2) The viability of MCF-7 breast cancer cells was measured by the method of Carmichael using 3-(4,5-dimethylthiazol-2-yl)-2,5-diphenyltetrazolium (Table 2). In terms of reduction in cell viability, the compounds rank in MCF-7 cells in the order chlorambucil > 4j > 4i > 4h > 4n > 4k > 4l > 4a > 4g > 4b–4f.
# as §1
# (§3) The assay was performed according to the method of Carmichael using 3-(4,5-dimethylthiazole-2-yl)-2,5-diphenyltetrazolium bromide (MTT). Confluent cells cultured for 24 h with various concentrations of studied compounds in 6-well plates were washed three times with PBS and then incubated for 4 h in 1 cm^3 of MTT solution (0.5 mg/cm^3 of PBS) at 37 °C in 5% CO2 in an incubator. The medium was removed and 1 cm^3 of […] HCl in absolute isopropanol was added to the cells attached. Absorbance of converted dye in the living cells was measured at a wavelength of 570 nm. Cell viability of breast cancer cells cultured in the presence of ligands was calculated as percentage of controlled cells.
# [3] = Cell viability (MTT) assay, fibroblasts; format: cell-based, human
# Protocol: as §2, §1, §3
# [4] = system: normal human skin fibroblasts; assay: Cell viability (MTT) assay, fibroblasts; format: cell-based
# Protocol: as §2, §1, §3
# [5] = system: human breast cancer cell line (MCF-7 and MDA-MB-231); parameters: method as in PMID 26133068; details: cell line not specified (MCF-7 and MDA-MB-231 tested); cited from earlier work
# [6] = Homo sapiens, Fibroblast, Fibroblasts, 24 h, mean ± SD of four independent experiments
# [7] = Homo sapiens, MCF7, MCF-7 cells, 24 h, mean ± SD of four independent experiments, read-out: IC50 inhibition of [3H]-thymidine incorporation into DNA
# [8] = Homo sapiens, MCF7, 24 h, read-out: IC50 cytotoxicity (cell viability, MTT)
# [9] = Fibroblasts, 24 h, mean ± SD of four independent experiments
# [10] = MCF-7 cells, 24 h, mean ± SD of four independent experiments, read-out: IC50 inhibition of [3H]-thymidine incorporation into DNA
Molecule,"IC50 [1, 7]",IC50 (Fibroblasts; [6]),"IC50 [2, 8]",IC50 at 24 h ([3]; human),further results
"CCCCSSc1nnc(-c2ccccc2)c(-c2ccccc2)n1 [Compound 4b, 5,6-Diphenyl-1,2,4-triazine-3-yl n-butyl disulfide]",> 200 µM,> 200 µM,> 200 µM,> 200 µM,
"c1ccc(SSc2nnc(-c3ccccc3)c(-c3ccccc3)n2)cc1 [Compound 4h, 5,6-Diphenyl-1,2,4-triazine-3-yl phenyl disulfide]",68 ± 2 µM,> 200 µM,115 ± 2 µM,> 200 µM,
"OCCCCCCCCCCCSSc1nnc(-c2ccccc2)c(-c2ccccc2)n1 [Compound 4g, 5,6-Diphenyl-1,2,4-triazine-3-yl 11-hydroxyundecyl disulfide]",188 ± 1 µM,> 200 µM,197 ± 1 µM,> 200 µM,
"CCCCCCCCCCCCSSc1nnc(-c2ccccc2)c(-c2ccccc2)n1 [Compound 4f, 5,6-Diphenyl-1,2,4-triazine-3-yl n-dodecyl disulfide]",> 200 µM,> 200 µM,> 200 µM,> 200 µM,
"CC(C)SSc1nnc(-c2ccccc2)c(-c2ccccc2)n1 [Compound 4a, 5,6-Diphenyl-1,2,4-triazine-3-yl isopropyl disulfide]",188 ± 2 µM,> 200 µM,190 ± 2 µM,> 200 µM,
"CCCCCSSc1nnc(-c2ccccc2)c(-c2ccccc2)n1 [Compound 4e, 5,6-Diphenyl-1,2,4-triazine-3-yl n-pentyl disulfide]",> 200 µM,> 200 µM,> 200 µM,> 200 µM,
"O=C(O)CCCc1ccc(N(CCCl)CCCl)cc1 [Chlorambucil, reference compound]",,,97 ± 2 µM,,"IC50 (Fibroblasts; Homo sapiens, Fibroblast): 120 ± 1 µM; IC50 ([1]; Homo sapiens, MCF7, read-out: IC50 inhibition of [3H]-thymidine incorporation into DNA): 47 ± 2 µM; IC50 at 24 h ([3]; normal human skin fibroblasts, 24 h, mean ± SD of four independent experiments, read-out: IC50 cytotoxicity (cell viability, MTT)): 150 ± 1 µM"
"5,6-Diphenyl-1,2,4-triazine-3-yl tert-butyl disulfide [Compound 4d]",,,,,"IC50 (Fibroblasts; [9]): > 200 µM; IC50 [1, 10]: > 200 µM; IC50 [2]: > 200 µM; IC50 [4]: > 200 µM"
"5,6-Diphenyl-1,2,4-triazine-3-yl isobutyl disulfide [Compound 4c]",,,,,"IC50 (Fibroblasts; [9]): > 200 µM; IC50 [1, 10]: > 200 µM; IC50 [2]: > 200 µM; IC50 [4]: > 200 µM"
"c1ccc(-c2nnc(SSc3nnc(-c4ccccc4)c(-c4ccccc4)n3)nc2-c2ccccc2)cc1 [5,5′,6,6′-tetraphenylbis(1,2,4-triazin-3-yl)disulfane]",,,,,IC50 [5]: 25 µM

# Second part, led by results:
"IC50 [1, 7]",Molecule,IC50 (Fibroblasts; [6]),"IC50 [2, 8]",IC50 at 24 h ([3]; human),further results
142 ± 1 µM,"O=[N+]([O-])c1ccc(SSc2nnc(-c3ccccc3)c(-c3ccccc3)n2)cc1 [Compound 4l, 5,6-Diphenyl-1,2,4-triazine-3-yl 4-nitrophenyl disulfide]",> 200 µM,140 ± 1 µM,> 200 µM,
59 ± 2 µM,"COc1ccc(SSc2nnc(-c3ccccc3)c(-c3ccccc3)n2)cc1 [Compound 4j, 5,6-Diphenyl-1,2,4-triazine-3-yl 4-methoxyphenyl disulfide]",> 200 µM,102 ± 2 µM,> 200 µM,
60 ± 2 µM,"Cc1ccc(SSc2nnc(-c3ccccc3)c(-c3ccccc3)n2)cc1 [Compound 4i, 5,6-Diphenyl-1,2,4-triazine-3-yl p-tolyl disulfide]",> 200 µM,108 ± 1 µM,> 200 µM,
75 ± 2 µM,"c1ccc(-c2nnc(SSc3nc4ccccc4s3)nc2-c2ccccc2)cc1 [Compound 4n, 5,6-Diphenyl-1,2,4-triazine-3-yl benzothiazol-2-yl disulfide]",> 200 µM,119 ± 2 µM,> 200 µM,
83 ± 1 µM,"Clc1ccc(SSc2nnc(-c3ccccc3)c(-c3ccccc3)n2)cc1 [Compound 4k, 5,6-Diphenyl-1,2,4-triazine-3-yl 4-chlorophenyl disulfide]",> 200 µM,121 ± 2 µM,> 200 µM,
